# Test system: HepG2-A16-CD81EGFP cells
# Experiment: cells
# Details: Homo sapiens, HepG2, read-out: HepG2 Tox% @ 50 uM rep1
row,SMILES,cytotoxicity at 50 µM [%]
1,CCN(CC)CCNc1ncnc2c1[nH]c1ccc(Cl)cc12 [MMV396703],95
2,CN1CCN(c2ncnc3c2[nH]c2ccc(Cl)cc23)CC1 [MMV396704],32
3,COc1cccc(Cn2c(Oc3ccccc3)nc3c2c(=O)n(C)c(=O)n3C)c1 [MMV396705],47
4,COc1ccc(CCN2C(=O)c3[nH]nc(-c4cc(Cl)c(C)cc4O)c3C2c2ccccc2F)cc1 (centres unmarked) [MMV396717],97
5,COc1ccc2c(c1)C1(Nc3ccccc3-c3nc4ccccc4n31)C(=O)N2 (centres unmarked) [MMV396749],88
6,O=C(NNc1cc(N2CCCC2)nc(N2CCCC2)n1)c1ccccc1 [MMV396770],29
7,CC(C)(C)CC(C)(C)NCC(O)COc1ccc(Cl)cc1Cl (centres unmarked) [MMV396794],99
8,COc1ccc(-c2c(C)nn3c(N)c(C#N)cnc23)cc1OC [MMV396797],72
9,Cc1cccc(-n2ncc3c(=O)[nH]c(-n4nc(C)cc4NC(=O)c4cc5ccccc5o4)nc32)c1 [MMV403679],38
10,O=C1C2=C(Nc3ccccc3SC2c2ccccc2)c2ccccc21 (centres unmarked) [MMV645672],87
11,CC(C)(C)c1ccc(O)c(CNC2CCCCC2)c1 [MMV665785],97
12,CC(NCc1ccccc1)c1cc(Cl)ccc1O (centres unmarked) [MMV665789],72
13,FC(F)(F)c1cccc(Nc2nc3ccccc3nc2Nc2cccc(C(F)(F)F)c2)c1 [MMV665794],100
14,CC(C)(C)CC(C)(C)NCC(O)COc1ccc2c(c1)CCC2 (centres unmarked) [MMV665817],96
15,CC1CC2=C(CC1CNCCCN(C)C)C(C)(C)CCC2 (centres unmarked) [MMV665830],98
16,O=C(Nc1ccc(Cl)c(Cl)c1)Nc1ccc(Cl)c(Cl)c1 [MMV665852],100
17,CCCCNc1nc(NC(C)(C)C)nc(NC(C)(C)C)n1 [MMV665864],41
18,Cc1cc(Nc2ccc(C)c(Cl)c2)n2nc(C(F)(F)F)nc2n1 [MMV665874],93
19,CC(C)(C)C(=O)Nc1ccc(C(=O)Nc2cccc(-c3nc4ccccc4[nH]3)c2)cc1 [MMV665879],99
20,CC(Oc1ccc(NC(=O)c2cccs2)cc1)C(=O)c1ccc(Cl)cc1 (centres unmarked) [MMV665886],82
21,c1ccc(-c2ccc(-c3nc4ccccc4[nH]3)cc2)cc1 [MMV665891],39
22,CC(=O)c1sc(NC(=O)Nc2ccc(C)cc2C)nc1C [MMV665894],-26

# Same assay, conditions: Homo sapiens, HepG2, read-out: HepG2 Tox% @ 50 uM rep2
row,SMILES,cytotoxicity at 50 µM [%]
1,CCN(CC)CCNc1ncnc2c1[nH]c1ccc(Cl)cc12 [MMV396703],98
2,COc1ccc2c(c1)C1(Nc3ccccc3-c3nc4ccccc4n31)C(=O)N2 (centres unmarked) [MMV396749],94
3,CC(C)(C)CC(C)(C)NCC(O)COc1ccc(Cl)cc1Cl (centres unmarked) [MMV396794],100
4,COc1ccc(-c2c(C)nn3c(N)c(C#N)cnc23)cc1OC [MMV396797],77
5,Cc1cccc(-n2ncc3c(=O)[nH]c(-n4nc(C)cc4NC(=O)c4cc5ccccc5o4)nc32)c1 [MMV403679],47
6,CC(C)(C)c1ccc(O)c(CNC2CCCCC2)c1 [MMV665785],99
7,CC(NCc1ccccc1)c1cc(Cl)ccc1O (centres unmarked) [MMV665789],89
8,CC(C)(C)CC(C)(C)NCC(O)COc1ccc2c(c1)CCC2 (centres unmarked) [MMV665817],98
9,Cc1cc(Nc2ccc(C)c(Cl)c2)n2nc(C(F)(F)F)nc2n1 [MMV665874],95
10,CC(C)(C)C(=O)Nc1ccc(C(=O)Nc2cccc(-c3nc4ccccc4[nH]3)c2)cc1 [MMV665879],100
11,c1ccc(-c2ccc(-c3nc4ccccc4[nH]3)cc2)cc1 [MMV665891],30

# Same assay, conditions: Homo sapiens, HepG2, read-out: Tox IC50
row,SMILES,IC50 [µM]
1,COc1ccc2c(c1)C1(Nc3ccccc3-c3nc4ccccc4n31)C(=O)N2 (centres unmarked) [MMV396749],> 50
2,CC(C)(C)CC(C)(C)NCC(O)COc1ccc(Cl)cc1Cl (centres unmarked) [MMV396794],15.1
3,COc1ccc(-c2c(C)nn3c(N)c(C#N)cnc23)cc1OC [MMV396797],25.8
4,FC(F)(F)c1cccc(Nc2nc3ccccc3nc2Nc2cccc(C(F)(F)F)c2)c1 [MMV665794],1.9
5,O=C(Nc1ccc(Cl)c(Cl)c1)Nc1ccc(Cl)c(Cl)c1 [MMV665852],4.86
6,CCCCNc1nc(NC(C)(C)C)nc(NC(C)(C)C)n1 [MMV665864],> 50

# Same assay, conditions: Homo sapiens, HepG2, read-out: Tox max inhibition (%) @ 50 uM
row,SMILES,inhibition at 50 µM [%]
1,COc1ccc2c(c1)C1(Nc3ccccc3-c3nc4ccccc4n31)C(=O)N2 (centres unmarked) [MMV396749],45
2,CC(C)(C)CC(C)(C)NCC(O)COc1ccc(Cl)cc1Cl (centres unmarked) [MMV396794],93
3,COc1ccc(-c2c(C)nn3c(N)c(C#N)cnc23)cc1OC [MMV396797],55
4,FC(F)(F)c1cccc(Nc2nc3ccccc3nc2Nc2cccc(C(F)(F)F)c2)c1 [MMV665794],102
5,O=C(Nc1ccc(Cl)c(Cl)c1)Nc1ccc(Cl)c(Cl)c1 [MMV665852],101
6,CCCCNc1nc(NC(C)(C)C)nc(NC(C)(C)C)n1 [MMV665864],41

# Test system: Plasmodium berghei (Pb-Luc) exoerythrocytic-stage parasites
# Experiment: microbe, parasite or virus in culture
# Details: read-out: Inhibition% @ 50 uM rep1
row,SMILES,inhibition at 50 µM [%]
1,CCN(CC)CCNc1ncnc2c1[nH]c1ccc(Cl)cc12 [MMV396703],103
2,CN1CCN(c2ncnc3c2[nH]c2ccc(Cl)cc23)CC1 [MMV396704],99
3,COc1cccc(Cn2c(Oc3ccccc3)nc3c2c(=O)n(C)c(=O)n3C)c1 [MMV396705],99
4,COc1ccc(CCN2C(=O)c3[nH]nc(-c4cc(Cl)c(C)cc4O)c3C2c2ccccc2F)cc1 (centres unmarked) [MMV396717],101
5,COc1ccc2c(c1)C1(Nc3ccccc3-c3nc4ccccc4n31)C(=O)N2 (centres unmarked) [MMV396749],102
6,O=C(NNc1cc(N2CCCC2)nc(N2CCCC2)n1)c1ccccc1 [MMV396770],97
7,CC(C)(C)CC(C)(C)NCC(O)COc1ccc(Cl)cc1Cl (centres unmarked) [MMV396794],101
8,COc1ccc(-c2c(C)nn3c(N)c(C#N)cnc23)cc1OC [MMV396797],104
9,Cc1cccc(-n2ncc3c(=O)[nH]c(-n4nc(C)cc4NC(=O)c4cc5ccccc5o4)nc32)c1 [MMV403679],100
10,O=C1C2=C(Nc3ccccc3SC2c2ccccc2)c2ccccc21 (centres unmarked) [MMV645672],104
11,CC(C)(C)c1ccc(O)c(CNC2CCCCC2)c1 [MMV665785],99
12,CC(NCc1ccccc1)c1cc(Cl)ccc1O (centres unmarked) [MMV665789],103
13,FC(F)(F)c1cccc(Nc2nc3ccccc3nc2Nc2cccc(C(F)(F)F)c2)c1 [MMV665794],103
14,CC(C)(C)CC(C)(C)NCC(O)COc1ccc2c(c1)CCC2 (centres unmarked) [MMV665817],103
15,CC1CC2=C(CC1CNCCCN(C)C)C(C)(C)CCC2 (centres unmarked) [MMV665830],102
16,O=C(Nc1ccc(Cl)c(Cl)c1)Nc1ccc(Cl)c(Cl)c1 [MMV665852],103
17,CCCCNc1nc(NC(C)(C)C)nc(NC(C)(C)C)n1 [MMV665864],94
18,Cc1cc(Nc2ccc(C)c(Cl)c2)n2nc(C(F)(F)F)nc2n1 [MMV665874],102
19,CC(C)(C)C(=O)Nc1ccc(C(=O)Nc2cccc(-c3nc4ccccc4[nH]3)c2)cc1 [MMV665879],102
20,CC(Oc1ccc(NC(=O)c2cccs2)cc1)C(=O)c1ccc(Cl)cc1 (centres unmarked) [MMV665886],102
21,c1ccc(-c2ccc(-c3nc4ccccc4[nH]3)cc2)cc1 [MMV665891],103
22,CC(=O)c1sc(NC(=O)Nc2ccc(C)cc2C)nc1C [MMV665894],3.42

# Same assay, conditions: read-out: Inhibition% @ 50 uM rep2
row,SMILES,inhibition at 50 µM [%]
1,CCN(CC)CCNc1ncnc2c1[nH]c1ccc(Cl)cc12 [MMV396703],106
2,CN1CCN(c2ncnc3c2[nH]c2ccc(Cl)cc23)CC1 [MMV396704],101
3,COc1cccc(Cn2c(Oc3ccccc3)nc3c2c(=O)n(C)c(=O)n3C)c1 [MMV396705],99
4,COc1ccc(CCN2C(=O)c3[nH]nc(-c4cc(Cl)c(C)cc4O)c3C2c2ccccc2F)cc1 (centres unmarked) [MMV396717],101
5,COc1ccc2c(c1)C1(Nc3ccccc3-c3nc4ccccc4n31)C(=O)N2 (centres unmarked) [MMV396749],102
6,O=C(NNc1cc(N2CCCC2)nc(N2CCCC2)n1)c1ccccc1 [MMV396770],98
7,CC(C)(C)CC(C)(C)NCC(O)COc1ccc(Cl)cc1Cl (centres unmarked) [MMV396794],104
8,COc1ccc(-c2c(C)nn3c(N)c(C#N)cnc23)cc1OC [MMV396797],106
9,Cc1cccc(-n2ncc3c(=O)[nH]c(-n4nc(C)cc4NC(=O)c4cc5ccccc5o4)nc32)c1 [MMV403679],100
10,O=C1C2=C(Nc3ccccc3SC2c2ccccc2)c2ccccc21 (centres unmarked) [MMV645672],104
11,CC(C)(C)c1ccc(O)c(CNC2CCCCC2)c1 [MMV665785],102
12,CC(NCc1ccccc1)c1cc(Cl)ccc1O (centres unmarked) [MMV665789],100
13,FC(F)(F)c1cccc(Nc2nc3ccccc3nc2Nc2cccc(C(F)(F)F)c2)c1 [MMV665794],102
14,CC(C)(C)CC(C)(C)NCC(O)COc1ccc2c(c1)CCC2 (centres unmarked) [MMV665817],104
15,CC1CC2=C(CC1CNCCCN(C)C)C(C)(C)CCC2 (centres unmarked) [MMV665830],102
16,O=C(Nc1ccc(Cl)c(Cl)c1)Nc1ccc(Cl)c(Cl)c1 [MMV665852],104
17,CCCCNc1nc(NC(C)(C)C)nc(NC(C)(C)C)n1 [MMV665864],94
18,Cc1cc(Nc2ccc(C)c(Cl)c2)n2nc(C(F)(F)F)nc2n1 [MMV665874],102
19,CC(C)(C)C(=O)Nc1ccc(C(=O)Nc2cccc(-c3nc4ccccc4[nH]3)c2)cc1 [MMV665879],103
20,CC(Oc1ccc(NC(=O)c2cccs2)cc1)C(=O)c1ccc(Cl)cc1 (centres unmarked) [MMV665886],102
21,c1ccc(-c2ccc(-c3nc4ccccc4[nH]3)cc2)cc1 [MMV665891],105
22,CC(=O)c1sc(NC(=O)Nc2ccc(C)cc2C)nc1C [MMV665894],-0.396

# Same assay, conditions: read-out: PbLuc IC50, dose response, 1/3 dilutions, max conc. 10 or 50 uM, unit inferred
row,SMILES,IC50 [µM]
1,COc1ccc2c(c1)C1(Nc3ccccc3-c3nc4ccccc4n31)C(=O)N2 (centres unmarked) [MMV396749],15.9
2,CC(C)(C)CC(C)(C)NCC(O)COc1ccc(Cl)cc1Cl (centres unmarked) [MMV396794],15.1
3,COc1ccc(-c2c(C)nn3c(N)c(C#N)cnc23)cc1OC [MMV396797],1.63
4,FC(F)(F)c1cccc(Nc2nc3ccccc3nc2Nc2cccc(C(F)(F)F)c2)c1 [MMV665794],0.667
5,O=C(Nc1ccc(Cl)c(Cl)c1)Nc1ccc(Cl)c(Cl)c1 [MMV665852],0.669
6,CCCCNc1nc(NC(C)(C)C)nc(NC(C)(C)C)n1 [MMV665864],15.5

# Same assay, conditions: read-out: PbLuc max inhibition (%) @ 50 uM
row,SMILES,inhibition at 50 µM [%]
1,COc1ccc2c(c1)C1(Nc3ccccc3-c3nc4ccccc4n31)C(=O)N2 (centres unmarked) [MMV396749],98
2,CC(C)(C)CC(C)(C)NCC(O)COc1ccc(Cl)cc1Cl (centres unmarked) [MMV396794],92
3,COc1ccc(-c2c(C)nn3c(N)c(C#N)cnc23)cc1OC [MMV396797],101
4,FC(F)(F)c1cccc(Nc2nc3ccccc3nc2Nc2cccc(C(F)(F)F)c2)c1 [MMV665794],100
5,O=C(Nc1ccc(Cl)c(Cl)c1)Nc1ccc(Cl)c(Cl)c1 [MMV665852],100
6,CCCCNc1nc(NC(C)(C)C)nc(NC(C)(C)C)n1 [MMV665864],89
